Holding throughout (type): functional
The test system of one assay is Mycobacterium kansasii. As to the kind of experiment: Antibacterial activity against Mycobacterium kansasii.
Assay [1] has as its system Mycobacterium intracellulare. The assay is described as follows: Antibacterial activity against Mycobacterium intracellular.
The test system of assay [2] is Mycobacterium tuberculosis. As to the kind of experiment: Antibacterial activity against Mycobacterium tuberculosis H37Rv.

≈ marks a conversion by molar mass, not a printed value. Where only a bound is given, the exact number is not on record here.

Among the data in ChEMBL document CHEMBL1122862, “Synthesis and antibacterial activity of 2,2'-dithiobis(benzamide) derivatives against Mycobacterium species” (1985) are MIC values, retold here.

Consider `CCCCCC(=O)OCCCNC(=O)c1ccccc1SSc1ccccc1C(=O)NCCCOC(=O)CCCCC`, for which the results for the MIC (in the assay on Mycobacterium kansasii; in assay [1]; in assay [2]) were 0.39 µg/mL (≈ 0.632 µM), 12.5 µg/mL (≈ 20.3 µM) and 3.13 µg/mL (≈ 5.07 µM), respectively.

Turning to `O=C(Nc1cccc(C(F)(F)F)c1)c1ccccc1SSc1ccccc1C(=O)Nc1cccc(C(F)(F)F)c1`, the figures for the minimum inhibitory concentration (MIC) (against Mycobacterium kansasii; in assay [1]; in assay [2]) were 25 µg/mL (≈ 42.2 µM), 25 µg/mL (≈ 42.2 µM) and 12.5 µg/mL (≈ 21.1 µM), respectively.

In the case of `O=C1c2ccccc2S(=O)(=O)N1CO`, the minimum inhibitory concentration (MIC) was greater than 100 µg/mL in the assay with Mycobacterium kansasii, 100 µg/mL (≈ 469 µM) in assay [1] and greater than 100 µg/mL in assay [2].

Turning to `CCCCCCCCCCCCCCCCCCNC(=O)c1ccccc1SSc1ccccc1C(=O)NCCCCCCCCCCCCCCCCCC`, the MIC against Mycobacterium kansasii was greater than 100 µg/mL; in assay [1], greater than 100 µg/mL; in assay [2], 100 µg/mL (≈ 124 µM).

On to `O=c1c2ccccc2sn1CO`, for which the minimal inhibitory concentration (MIC) (in the assay on Mycobacterium kansasii; in assay [1]; in assay [2]) was 12.5 µg/mL (≈ 69 µM) throughout.

On to `CCCCCCCC(=O)OCCCNC(=O)c1ccccc1SSc1ccccc1C(=O)NCCCOC(=O)CCCCCCC`, for which the MIC against Mycobacterium kansasii came to 0.78 µg/mL (≈ 1.16 µM); in assay [1], 12.5 µg/mL (≈ 18.6 µM); in assay [2], 0.39 µg/mL (≈ 0.58 µM).

Turning to `O=C(Nc1ccc(S(=O)(=O)Nc2nc3ccccc3s2)cc1)c1ccccc1SSc1ccccc1C(=O)Nc1ccc(S(=O)(=O)Nc2nc3ccccc3s2)cc1`, the minimal inhibitory concentration (MIC) was determined as 50 µg/mL (≈ 56.7 µM) with Mycobacterium kansasii, 100 µg/mL (≈ 113 µM) in assay [1] and 100 µg/mL (≈ 113 µM) in assay [2].

On to `O=C(Nc1ccc(Br)c2ccccc12)c1ccccc1SSc1ccccc1C(=O)Nc1ccc(Br)c2ccccc12`, for which the MIC in the assay with Mycobacterium kansasii is 50 µg/mL (≈ 70 µM); in assay [1], greater than 100 µg/mL; in assay [2], 12.5 µg/mL (≈ 17.5 µM).

Regarding `O=C(NC1CCC(O)CC1)c1ccccc1SSc1ccccc1C(=O)NC1CCC(O)CC1` (stereo not given), the values for the minimum inhibitory concentration (MIC) (in the assay with Mycobacterium kansasii; in assay [1]; in assay [2]) were 25 µg/mL (≈ 49.9 µM), 25 µg/mL (≈ 49.9 µM) and 12.5 µg/mL (≈ 25 µM), respectively.

Consider `O=C(Nc1c([N+](=O)[O-])ccc2ccccc12)c1ccccc1SSc1ccccc1C(=O)Nc1c([N+](=O)[O-])ccc2ccccc12`, for which the MIC against Mycobacterium kansasii is 50 µg/mL (≈ 77.3 µM); in assay [1], greater than 100 µg/mL; in assay [2] it was 50 µg/mL (≈ 77.3 µM).

Consider `COC(CNC(=O)c1ccccc1SSc1ccccc1C(=O)NCC(OC)OC)OC`, for which the MIC was found to be 12.5 µg/mL (≈ 26 µM) in the assay with Mycobacterium kansasii, 12.5 µg/mL (≈ 26 µM) in assay [1] and 3.13 µg/mL (≈ 6.51 µM) in assay [2].

As to `CCCCCCCCCCCC(=O)OCCNC(=O)c1ccccc1SSc1ccccc1C(=O)NCCOC(=O)CCCCCCCCCCC`, the minimum inhibitory concentration (MIC) in the assay with Mycobacterium kansasii came to 25 µg/mL (≈ 33 µM); in assay [1], 100 µg/mL (≈ 132 µM); in assay [2], 6.25 µg/mL (≈ 8.26 µM).

`CCCCCCCCCCCCCCCC(=O)OCCCNC(=O)c1ccccc1SSc1ccccc1C(=O)NCCCOC(=O)CCCCCCCCCCCCCCC`: the values for the MIC (with Mycobacterium kansasii; in assay [1]; in assay [2]) were 100 µg/mL (≈ 111 µM), greater than 100 µg/mL and 50 µg/mL (≈ 55.7 µM), respectively.

Take `O=C(c1ccccc1SSc1ccccc1C(=O)N1CCN(c2ccccc2)CC1)N1CCN(c2ccccc2)CC1`: the results for the minimal inhibitory concentration (MIC) (against Mycobacterium kansasii; in assay [1]; in assay [2]) were 50 µg/mL (≈ 84.1 µM), 25 µg/mL (≈ 42 µM) and 12.5 µg/mL (≈ 21 µM), respectively.

Take `O=C(NCCO)c1ccc(Cl)cc1SSc1ccc(Cl)cc1C(=O)NCCO`: the results for the MIC (in the assay on Mycobacterium kansasii; in assay [1]; in assay [2]) were 25 µg/mL (≈ 54.2 µM), 50 µg/mL (≈ 108 µM) and 6.25 µg/mL (≈ 13.5 µM), respectively.

For `CCCCCCCCCC(=O)OCCCNC(=O)c1ccccc1SSc1ccccc1C(=O)NCCCOC(=O)CCCCCCCCC`, the MIC against Mycobacterium kansasii stood at 0.39 µg/mL (≈ 0.535 µM); in assay [1], 12.5 µg/mL (≈ 17.1 µM); in assay [2] it was 0.39 µg/mL (≈ 0.535 µM).

Turning to `NC(=O)c1ccccc1SSc1ccccc1C(N)=O`, the minimal inhibitory concentration (MIC) in the assay on Mycobacterium kansasii turned out to be 25 µg/mL (≈ 82.1 µM); in assay [1] it was 25 µg/mL (≈ 82.1 µM); in assay [2], 12.5 µg/mL (≈ 41.1 µM).

Turning to `CCCCCCCCCCCCCCCC(=O)OC(C)CNC(=O)c1ccccc1SSc1ccccc1C(=O)NCC(C)OC(=O)CCCCCCCCCCCCCCC` (stereo not given), the MIC in the assay with Mycobacterium kansasii is greater than 100 µg/mL; in assay [1] it was greater than 100 µg/mL; in assay [2] it was 25 µg/mL (≈ 27.9 µM).

On to `O=C(NC1CCCCC1)c1ccccc1SSc1ccccc1C(=O)NC1CCCCC1`, for which the MIC in the assay on Mycobacterium kansasii is 100 µg/mL (≈ 213 µM); in assay [1], greater than 100 µg/mL; in assay [2] it was 12.5 µg/mL (≈ 26.7 µM).

For the compound `CCCC(=O)OCCCNC(=O)c1ccccc1SSc1ccccc1C(=O)NCCCOC(=O)CCC`, the minimum inhibitory concentration (MIC) amounted to 6.25 µg/mL (≈ 11.1 µM) against Mycobacterium kansasii, 25 µg/mL (≈ 44.6 µM) in assay [1] and 6.25 µg/mL (≈ 11.1 µM) in assay [2].

As for `O=C(Nc1cccc2ccc(O)cc12)c1ccccc1SSc1ccccc1C(=O)Nc1cccc2ccc(O)cc12`, the minimum inhibitory concentration (MIC) (in the assay with Mycobacterium kansasii; in assay [1]; in assay [2]) was 50 µg/mL (≈ 84.9 µM) in each case.

As for `COCCNC(=O)c1ccccc1SSc1ccccc1C(=O)NCCOC`, the figures for the MIC (in the assay on Mycobacterium kansasii; in assay [1]; in assay [2]) were 12.5 µg/mL (≈ 29.7 µM), 12.5 µg/mL (≈ 29.7 µM) and 6.25 µg/mL (≈ 14.9 µM), respectively.

`O=C(c1ccccc1SSc1ccccc1C(=O)N1CCOCC1)N1CCOCC1`: the MIC was greater than 100 µg/mL with Mycobacterium kansasii, greater than 100 µg/mL in assay [1] and 12.5 µg/mL (≈ 28.1 µM) in assay [2].

With `O=C(c1ccccc1SSc1ccccc1C(=O)N(c1ccccc1)c1ccccc1)N(c1ccccc1)c1ccccc1`, the MIC (in the assay on Mycobacterium kansasii; in assay [1]; in assay [2]) was greater than 100 µg/mL throughout.

Turning to `CCC(O)CNC(=O)c1ccccc1SSc1ccccc1C(=O)NCC(O)CC` (stereo not given), the MIC (in the assay on Mycobacterium kansasii; in assay [1]; in assay [2]) was 12.5 µg/mL (≈ 27.9 µM) in each case.

For the compound `Cl.Cl.O=C(NCC1CCNCC1)c1ccccc1SSc1ccccc1C(=O)NCC1CCNCC1`, the MIC with Mycobacterium kansasii was greater than 100 µg/mL; in assay [1], greater than 100 µg/mL; in assay [2] it was 100 µg/mL.

On to `CC[C@@H](CO)NCCN[C@@H](CC)CO` [ETHAMBUTOL], for which the MIC against Mycobacterium kansasii is 12.5 µg/mL (≈ 61.2 µM); in assay [1] it was 12.5 µg/mL (≈ 61.2 µM); in assay [2] it was 0.78 µg/mL (≈ 3.82 µM).

On to `NNC(=O)c1ccncc1` [ISONIAZID], for which the MIC is 1.56 µg/mL (≈ 11.4 µM) against Mycobacterium kansasii, 6.25 µg/mL (≈ 45.6 µM) in assay [1] and 0.05 µg/mL (≈ 0.365 µM) in assay [2].

As to `NC[C@H]1O[C@H](O[C@H]2[C@H](O)[C@@H](O[C@H]3O[C@H](CO)[C@@H](O)[C@H](N)[C@H]3O)[C@H](N)C[C@@H]2N)[C@H](O)[C@@H](O)[C@@H]1O` [KANAMYCIN], the MIC was 25 µg/mL (≈ 51.6 µM) against Mycobacterium kansasii, 6.25 µg/mL (≈ 12.9 µM) in assay [1] and 3.13 µg/mL (≈ 6.46 µM) in assay [2].

As for `CO[C@H]1/C=C/O[C@@]2(C)Oc3c(C)c(O)c4c(O)c(c(/C=N/N5CCN(C)CC5)c(O)c4c3C2=O)NC(=O)/C(C)=C\C=C\[C@H](C)[C@H](O)[C@@H](C)[C@@H](O)[C@@H](C)[C@H](OC(C)=O)[C@@H]1C` [RIFAMPIN], the values for the MIC (against Mycobacterium kansasii; in assay [1]; in assay [2]) were 0.05 µg/mL (≈ 0.0608 µM), 0.2 µg/mL (≈ 0.243 µM) and 0.05 µg/mL (≈ 0.0608 µM), respectively.

For orientation: MIC means the lowest concentration that inhibits growth of the organism. A higher MIC goes with weaker potency.
